# From patent US4127687A, “Prevention of fouling of marine structures such as boat hulls” (Rohm and Haas Company, priority 1976, dated 1978)
# Legend:
# weed [1] = experiment: Membrane Diffusion Raft Trials, weed control; assay type: in vivo, grass-like algal growth common in sea water; conditions: membrane test, average 15 to 16 weeks of immersion
# Method in brief: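 Field raft test in sea water: known quantity of compound in container sealed with membrane of known porosity, diffusing into surrounding water; panels at waterline (illuminated, aerated) and flats (poorly lit, deeper). Fouling settlement inspected over about 15-16 weeks average immersion; scored 0 none, + some, ++ effective.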
# barnacle = experiment: Membrane Diffusion Raft Trials, barnacle control; assay type: in vivo, barnacles; conditions: membrane test, average 15 to 16 weeks of immersion
# Method in brief: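 Test compound held in a plastic container sealed by a porous membrane, diffusing into surrounding seawater on raft panels alongside standard poisons and a non-toxic control membrane. Settlement timed and quantified by regular inspection; scored 0 (none), + (some) or ++ (effective), averaging 15 to 16 weeks' immersion.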
# [2] = Amount of toxicant remaining in the test container after membrane diffusion raft tests; assay type: physicochemical; design: key: 0: empty or trace; +: some; + +: ample; conditions: after completion of membrane diffusion raft tests
# Method in brief: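 Known amount of compound held in a cylindrical container sealed with a membrane of known porosity, fixed to a raft panel so toxicant diffuses into the surrounding water. Each panel carries 35 test compounds, 4 standard poisons and 1 non-toxic membrane control. After the trial, container contents inspected visually for remaining toxicant (0 = empty or trace).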
# [3] = Water solubility by UV spectrophotometric method; assay type: physicochemical; conditions: water, saturated solution; Table 1; read-out: Solubility by UV method
# Method in brief: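 Molar absorptivity determined from UV absorbance of a known-concentration aqueous solution at λmax (10 cm cell). Saturated solution prepared by stirring excess compound in deionized water ~72 hrs, filtered, diluted to mid-scale absorbance; solubility calculated from absorbance using that absorptivity.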
# Hydroids = experiment: Membrane test, hydroids (Table 1 footnote d); assay type: in vivo; design: key: Effective against Hydroids
# From the text: 1). FIELD TESTS: - Membrane Diffusion Raft Trials
# A known quantity of the test compound is placed into a cylindrical plastic container whose open end is then covered with a membrane of known porosity; the complete unit is attached to the appropriate raft panel so that the poison can freely diffuse into the free water layer around it. Regular inspections, recording time and quantity of settlement, allow a life history of each membrane trial to be constructed. Each raft panel contains 35 compounds to be evaluated together with 4 standard poisons and 1 non-toxic membrane for control.
# The behavior on the raft can thus be compared with that of the standard poisons and the non-toxic control. At normal loading a membrane over the standard poisons would be free from macro-fouling after six months immersion. Compounds showing selective effects against restricted groups of fouling organisms also show up by membrane testing.
# ^d Effective against Hydroids.
# Enteromorpha spores = experiment: Laboratory toxicity test (Lab Bioassay) with Enteromorpha spores; assay type: in vivo; conditions: using Enteromorpha spores
# Method in brief: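 Enteromorpha spores (zoospores or gametes) exposed to test compounds in laboratory toxicity tests. LD50 values expressed as percentage saturated solution.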
# weed [4] = experiment: Paint panel / plaque tests against weed (Table 2); assay type: in vivo, grass-like algal growth common in sea water; design: key: high performance; medium performance; low performance; poor or unacceptable performance; conditions: April to November, 1975
# From the text: (3) PAINT FORMULATION AND TEST PANEL OR PLAQUE TESTS
# In order to evaluate the compound under practical conditions, weighed quantities of promising compounds are ground in standard volumes of a selected range of paint media and brushed out on plaques for marine immersion.
# The anti-fouling paint formulations used is exemplified by the following: […]
# The most preferred specific compounds were utilized in paints including vinyl chloride-vinyl acetate copolymers, chlorinated rubber, acrylic emulsions, and conventional paints with or without rosin to contain 20% by weight of biocide in the wet film and in some cases (Example 144 and Example 145) with concentrations of 5, 10, and 15% based on the wet film. Each of the compounds is also described in the membrane tests noted above. The paints were applied at normal thicknesses to plaques or panels of 10 centimeters by 10 centimeters which were immersed in various positions as described for the raft noted above. The compounds and results, as against weed, in the season April to November, 1975, are as follows: […]
# [5] = test system: sea water marine organisms; experiment: Effectiveness as sea water marine anti-foulant; assay type: in vivo; conditions: result in words
# From the text: The results in anti-fouling paints when utilizing the 3-isothiazolones of the patents noted above, are not predictable from their effectiveness as general biocides, whether against fresh water algae, bacteria, fungi, insects, etc.
# Of the compounds appearing hereinafter in the examples, a number are common to Table 1 appearing in columns 9-12 of the U.S. Pat. No. 3,573,488 patent. Among the compounds common to the latter patent and the present specification are the compounds identified in the patent as example numbers 3, 5-8, 13, 23, 24, 33, 36, 37, the n-octyl isomer of examples 38, 40, 75, 76, 79, 84, and 93-96.
# In example B of the U.S. Pat. No. 3,573,448 patent (appearing in columns 22-24) involving the control of algae, bacteria, fungi, and slime in fresh water cooling towers, not one of the compounds, or in some cases its homologue or analog, was effective as a salt water marine anti-foulant. […]
# In the following examples, two systems of testing the compounds and evaluating the same are utilized. One involves the utilization of a confined amount of the materials to be evaluated in a cylindrical container having an open end covered by a membrane permeable to a limited extent by the sea water and by the compound in the container. The other method involves making up an anti-fouling paint and testing the same. In a four month period, meaningful results are obtained, and for a full scale test, a six month period, bracketing the summer months, is preferred. The evaluations involving (1) field tests, (2) laboratory tests, and (3) paint panel tests, are as follows: […]
Compound,Weed Control (weed [1]),Barnacle Control (barnacle),Contents at the end of test (amount of toxicants remaining in the test container) [2],solubility [3] [µg/mL],Effective against Hydroids (footnote mark d) (Hydroids),Lab Bioassay LD50 (Enteromorpha spores),Effectiveness in paint CONV (conventional anti-fouling formulation) (weed [4]),Effectiveness in paint CR (chlorinated rubber) (weed [4]),Effectiveness in paint EM (acrylic emulsion) (weed [4]),Effectiveness in paint V (polyvinyl chloride-acetate) (weed [4]),Effectiveness in paint V/R (vinyl/rosin) (weed [4]),effectiveness as anti-foulant in sea water marine environments [5]
CCCCCCCCn1sc(Cl)cc1=O [Example 16],+ +,+ +,0,66,d,,,,,,,
CCCCCCCCn1sc(Cl)c(Cl)c1=O [Example 57],+ +,+ +,+ +,2.3,d,0.001 percentage saturated solution,m,h,h,h,h,
CCCCCCCCn1sc(Cl)c(Br)c1=O [Example 88],+ +,+ +,+,2.6,d,,,,,,,
CCCCCCCCCCn1sc(Cl)cc1=O [Example 22],+ +,+ +,0,7.2,d,,,,,,,
"O=c1c(Cl)c(Cl)sn1-c1ccc(Cl)cc1 [Example 145, 4,5-dichloro-2(4'-chlorophenyl)-3-isothiazolone]",,,,,,,h,h,h,h,h,effective in anti-fouling environments
